{"source": "patent US10294234B2", "about": "“HIV inhibitor compounds” (priority 2017, dated 2019)", "key": {"[1]": {"tested_on": "HIV-1 (IIIB) in MT-4 cells", "test": "MT-4 HIV assay", "assay_type": "cell-based", "settings": "Human immunodeficiency virus 1, MT4, 120 h; HIV-1 (IIIB), MT-4 cells, 5 days, Cell Titer Glo; read-out: EC50", "procedure,_shortened": "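Antiviral activity was read by Cell Titer Glo after a 5-day, 37 °C culture of MT-4 cells pre-infected with a 1:250 dilution of HIV-1 (IIIB). Compounds were tested as threefold dilution series in complete RPMI. Controls were no drug, mock infection and 5 uM AZT.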"}, "[2]": {"settings": "1 uM compound, NADPH", "procedure,_shortened": "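Each compound (1 uM) is incubated in duplicate with 0.5 mg/mL liver microsomal protein from dog, rat or human plus NADPH-regenerating system. Samples taken at 2, 12, 25, 45 and 65 minutes are deproteinised and quantified by LC/MS/MS. Half-life gives Clint.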"}, "[3]": {"test": "3H Human Predicted Clearance Assay (tritiated analogs)", "assay_type": "in vitro ADME", "set-up": "unit not given here", "settings": "tritiated analogs, human liver microsomes", "description": "3H Human Predicted Clearance Assay:\nFor certain compounds, tritiated analogs (H^3) were prepared to further determined their human predicted clearance with increased resolution. Those studies were performed as described above using the tritiated analogs. Data from those compounds is found in Table 2 below and reported in FIG. 1 (note ATV and DRV were not tritiated)."}, "in vivo": {"test": "in vivo", "description": "Pharmacokinetic Profiling Dog PK\nEach dosing group consisted of three non-naïve male beagle dogs. At dosing, the animals weighed between 9 to 12 kg. The animals were fasted overnight prior to dose administration and up to four hours after dosing. The test article was administered by intravenous infusion over 30-minutes. The rate of infusion was adjusted according to the body weight of each animal to deliver a dose of 0.5 or 1.0 mg/kg. For the oral dosing group, the test article was administered by oral gavage at a dose volume of 2 mL/kg.\nSerial venous blood samples (approximately 1.0 mL each) were collected at predose and 0.25, 0.48, 0.58, 0.75, 1.0, 1.5, 2, 4, 8, 12 and 24 hours post dose from each animal for the IV dosing group; blood samples were collected at predose, 0.25, 0.50, 1, 2 4, 6, 8,12 and 24 hours post dose for the oral dosing group. The blood samples were collected into Vacutainer™ tubes containing EDTA-K2 as the anti-coagulant and were immediately placed on wet ice pending centrifugation for plasma. An LC/MS/MS method was used to measure the concentration of test compound in plasma. Non-compartmental pharmacokinetic analysis was performed on the plasma concentration-time data. VSS=apparent volume of distribution, t1/2=half life, F=oral bioavailability."}, "[4]": {"tested_on": "HIV-1 (IIIB) in MT-4 cells", "test": "MT-4 HIV High Resolution Antiviral Assay", "assay_type": "cell-based", "description": "Compounds were tested in a high-throughput 384-well assay format for their ability to inhibit the replication of HIV-1 (IIIB) in MT-4 cells. Compounds were serially diluted (1:3) in DMSO on 384-well polypropylene plates and further diluted 200-fold into complete RPMI media (10% FBS, 1% P/S) using the Biotek Micro Flow and Agilent ECHO acoustic dispenser. Each plate contained up to 8 test compounds, with negative (No Drug Control) and 5 uM AZT positive controls. MT-4 cells were pre-infected with 10 uL of either RPMI (mock-infected) or a fresh 1:250 dilution of an HIV-1 (IIIB) concentrated virus stock. Infected and uninfected MT-4 cells were further diluted in complete RPMI media and added to each plate using a Micro Flow dispenser. After 5 days incubation in a humidified and temperature controlled incubator (37° C.), Cell Titer Glo (Promega) was added to the assay plates to quantify the amount of luciferase. EC50 and CC50 values were defined as the compound concentration that causes a 50% decrease in luminescence signal, and were calculated using a sigmoidal dose-response model to generate curve fits.\nMT-4 HIV High Resolution Antiviral Assay\nAssay protocol is identical to that described for the MT-4 antiviral assay with the following changes: Each drug is run in 2 series of quadruplicates with different starting concentrations for each series and 19 1.5 fold dilutions performed across the plate. […] Data is analyzed and Hill coefficients determined in Graph Pad Prism (San Diego, Calif.). EC95s were determined by the formula EC95=(19)^I/hill coefficient×EC50. HD values were determined for certain compounds and reported in Table 5 below as an illustrative example."}, "recombinant HIV protease": {"biological_target": "recombinant HIV protease (Human immunodeficiency virus type 1 group M subtype B, UniProt P04585)", "test": "biochemical", "experimental": "Inhibitor potency was measured using an enzymatic assay with a fluorogenic readout. […] After a 20-minute pre-incubation, the enzymatic reaction was initiated by the addition of the fluorogenic substrate (2-aminobenzoyl)Thr-Ile-Nle-(p-nitro)Phe-Gln-Arg (Bachem) to a final concentration of 40 μM. The total volume of the assay solution was 100 µL. The reaction was measured over 20 minutes on a Tecan Infinite M1000 plate reader using an excitation wavelength of 320 nm and a detection wavelength of 420 nm. The slopes of the progress curves were the measure of reaction rates."}, "[5]": {"settings": "male beagle dogs, IV infusion over 30 minutes, 0.5 or 1.0 mg/kg"}}}
{"smiles": "COC(=O)N[C@H](C(=O)N[C@@H](Cc1ccc(C#Cc2ccc(N3CC4CCC(C3)N4C3COC3)nc2)cc1)[C@@H](O)CN(Cc1c(F)cc(-c2ccn(C(F)F)n2)cc1F)NC(=O)[C@@H](NC(=O)OC)C(C)(C)C(F)(F)F)C(C)(C)C(F)(F)F", "note": "[Example 58, Methyl ((5S,8S,9S,14S)-11-(4-(1-(difluoromethyl)-1H-pyrazol-3-yl)-2,6-difluorobenzyl)-16,16,16-trifluoro-9-hydroxy-15,15-dimethyl-8-(4-((6-(8-(oxetan-3-yl)-3,8-diazabicyclo[3.2.1]octan-3-yl)pyridin-3-yl)ethynyl)benzyl)-3,6,13-trioxo-5-(1,1,1-trifluoro-2-methylpropan-2-yl)-2-oxa-4,7,11,12-tetraazahexadecan-14-yl)carbamate]", "values": [{"measurement": "EC50", "setting": "[1]", "value": 4.79, "unit": "nM"}, {"measurement": "Human Pred Cl.", "setting": "[2]; human liver microsomes 0.5 mg/mL", "value": "<0.11", "unit": "L/H/kg"}, {"measurement": "Rat. Pred. Cl.", "setting": "[2]; rat liver microsomes 0.5 mg/mL", "value": 0.24, "unit": "L/H/kg"}, {"measurement": "3H Human Predicted Cl.", "setting": "[3]", "value": 0.05}, {"measurement": "DOG IV CL", "setting": "in vivo; [5]", "value": 0.47, "unit": "L/h/kg"}, {"measurement": "DOG IV T1/2", "setting": "in vivo; [5]", "value": 13.8, "unit": "h"}, {"measurement": "DOG PO F", "setting": "in vivo; male beagle dogs, oral gavage, PO dose 2 mg/kg", "value": 18, "unit": "%"}, {"measurement": "Vd", "setting": "in vivo; male, beagle, dog, plasma, iv", "value": 6.34, "unit": "L/kg"}, {"measurement": "EC50", "setting": "[4]; Human immunodeficiency virus 1, IIIB, MT4, high resolution assay, 40 data points, MT-4 cells, read-out: EC50", "value": 6.8, "unit": "nM"}, {"measurement": "EC95", "setting": "[4]; calculated from Hill coefficient and EC50", "value": 11.4, "unit": "nM"}, {"measurement": "Hill-coefficient", "setting": "[4]; high resolution assay, Graph Pad Prism", "value": 5.8}, {"measurement": "Ki", "setting": "recombinant HIV protease", "value": 0.06, "unit": "nM"}]}
